Source: US20230167467A1, “METHODS AND COMPOSITIONS FOR THE PRODUCTION OF ISOBUTENE” (University of Alaska Anchorage, priority 2020, published 2023)
Values after ≈ are worked out from the molar mass of the structure shown.

What was measured:
[1] = tested on: Engineered strains of E. coli; assay type: cell-based
[2] = at 20° C.; cited from earlier work
[3] = purified MVD on 3-HIV; cited from earlier work
[4] = after solvent exposure, vs positive control

For C=C(C)C [isobutene], the “expression of accBC (fatty acid biosynthesis)” value [1] was “downregulated”, the “expression of bssRS (decreasing biofilm material)” value [1] was “upregulated” and the “expression of chaperone genes groLS and dnaJK” value [1] was “increased expression”. For the same molecule, the “expression of gad genes” value [1] was “increase in expression”, the “expression of gadABCE (acid resistance via GABA production)” value [1] was “upregulated” and the “expression of glpABC (glycerol to glycerone phosphate)” value [1] was “increased in expression”. The “expression of heat shock proteins and chaperones hslJORUV” value [1] was “no significant changes in expression”, the “expression of ibpAB” value [1] was “strong upregulation” and the “expression of ibpAB and clpAB (protein protection and repair)” value [1] was “increased”. For the same molecule, the “expression of marA” value [1] was “upregulated”, the “change in expression of gene adiA” value [1, 4] was 0.47 ± 0.86 and the “change in expression of gene adiC” value [1, 4] was −1.83 ± 1.03. The “change in expression of gene adiY” value [1, 4] was 0.21 ± 0.65, the “change in expression of gene bhsA” value [1, 4] was 0.43 ± 0.86 and the “change in expression of gene bssR” value [1, 4] was 3.93 ± 0.44. For the same molecule, the “change in expression of gene bssS” value [1, 4] was 3.75 ± 0.84, the “change in expression of gene clpA” value [1, 4] was 1.73 ± 0.64 and the “change in expression of gene clpB” value [1, 4] was 2.85 ± 0.69. The “change in expression of gene clpP” value [1, 4] was 0.09 ± 0.59, the “change in expression of gene coaA” value [1, 4] was −4.22 ± 0.95 and the “change in expression of gene coaD” value [1, 4] was −3.52 ± 1.24. The “change in expression of gene cspA” value [1, 4] was −8.13 ± 0.67, the “change in expression of gene cspB” value [1, 4] was −9.03 ± 1.74 and the “change in expression of gene cspC” value [1, 4] was −2.50 ± 0.94. For the same molecule, the “change in expression of gene cspD” value [1, 4] was 3.12 ± 0.58, the “change in expression of gene cspE” value [1, 4] was −0.85 ± 0.63 and the “change in expression of gene cspF” value [1, 4] was −7.27 ± 1.56. The “change in expression of gene dhaK” value [1, 4] was 2.25 ± 0.59, the “change in expression of gene dhaL” value [1, 4] was 0.48 ± 0.65 and the “change in expression of gene dnaJ” value [1, 4] was 0.17 ± 0.70. The “change in expression of gene dnaK” value [1, 4] was 2.71 ± 0.66, the “change in expression of gene fabA” value [1, 4] was −2.35 ± 0.81 and the “change in expression of gene fabB” value [1, 4] was −0.08 ± 0.68. The “change in expression of gene fabD” value [1, 4] was −1.92 ± 0.54, the “change in expression of gene flgA” value [1, 4] was −3.93 ± 1.72 and the “change in expression of gene flgB” value [1, 4] was −7.15 ± 1.90. For the same molecule, the “change in expression of gene flgC” value [1, 4] was −8.24 ± 2.24, the “change in expression of gene flgD” value [1, 4] was −6.54 ± 2.06 and the “change in expression of gene flgE” value [1, 4] was −7.58 ± 1.51. The “change in expression of gene flgF” value [1, 4] was −7.63 ± 1.96, the “change in expression of gene flgG” value [1, 4] was −6.35 ± 1.72 and the “change in expression of gene flgH” value [1, 4] was −4.44 ± 1.88. The “change in expression of gene gabD” value [1, 4] was −0.64 ± 1.36, the “change in expression of gene gabP” value [1, 4] was −3.65 ± 1.55 and the “change in expression of gene gabT” value [1, 4] was −1.79 ± 1.38. The “change in expression of gene gadA” value [1, 4] was 1.22 ± 0.68, the “change in expression of gene gadB” value [1, 4] was 2.70 ± 0.79 and the “change in expression of gene gadC” value [1, 4] was 3.17 ± 0.80. The “change in expression of gene gadE” value [1, 4] was 1.75 ± 0.60, the “change in expression of gene gadW” value [1, 4] was −4.21 ± 1.02 and the “change in expression of gene gadX” value [1, 4] was −1.69 ± 0.57. For the same molecule, the “change in expression of gene gadY” value [1, 4] was −1.72 ± 0.78, the “change in expression of gene glpA” value [1, 4] was 9.06 ± 0.87 and the “change in expression of gene glpB” value [1, 4] was 6.10 ± 0.63. The “change in expression of gene glpC” value [1, 4] was 6.02 ± 0.80, the “change in expression of gene groL” value [1, 4] was 2.61 ± 0.57 and the “change in expression of gene groS” value [1, 4] was 1.62 ± 0.50. The “change in expression of gene hchA” value [1, 4] was 3.41 ± 0.60, the “change in expression of gene hslJ” value [1, 4] was −1.24 ± 0.71 and the “change in expression of gene hslO” value [1, 4] was −0.29 ± 0.66. The “change in expression of gene hslR” value [1, 4] was −0.04 ± 0.67, the “change in expression of gene hslU” value [1, 4] was 0.23 ± 0.56 and the “change in expression of gene hslV” value [1, 4] was −1.15 ± 0.66. For the same molecule, the “change in expression of gene ibpA” value [1, 4] was 3.97 ± 1.21, the “change in expression of gene ibpB” value [1, 4] was 3.99 ± 1.50 and the “change in expression of gene lhgO” value [1, 4] was −1.00 ± 1.77. The “change in expression of gene lipA” value [1, 4] was −1.56 ± 0.63, the “change in expression of gene lipB” value [1, 4] was −4.07 ± 0.88 and the “change in expression of gene narG” value [1, 4] was 4.31 ± 0.65. For the same molecule, the “change in expression of gene narH” value [1, 4] was 3.55 ± 0.61, the “change in expression of gene narI” value [1, 4] was 1.31 ± 0.94 and the “change in expression of gene narJ” value [1, 4] was 2.32 ± 0.68. For the same molecule, the “change in expression of gene narK” value [1, 4] was −0.07 ± 0.89, the “change in expression of gene potA” value [1, 4] was −5.02 ± 0.89 and the “change in expression of gene potB” value [1, 4] was −4.42 ± 1.50. For the same molecule, the “change in expression of gene potC” value [1, 4] was −3.91 ± 1.44, the “change in expression of gene pspA” value [1, 4] was 7.14 ± 0.55 and the “change in expression of gene pspB” value [1, 4] was 4.56 ± 0.68. For the same molecule, the “change in expression of gene rpoA” value [1, 4] was −0.01 ± 0.44, the “change in expression of gene rpoB” value [1, 4] was −0.34 ± 0.40 and the “change in expression of gene rpoC” value [1, 4] was −0.44 ± 0.39. For the same molecule, the “change in expression of gene rpoD” value [1, 4] was −0.24 ± 0.70, the “change in expression of gene rpoE” value [1, 4] was −1.87 ± 0.62 and the “change in expression of gene rpoH” value [1, 4] was 0.42 ± 0.52. The “change in expression of gene rpoN” value [1, 4] was −1.57 ± 0.49, the “change in expression of gene rpoS” value [1, 4] was 0.24 ± 0.48 and the “change in expression of gene rpoZ” value [1, 4] was −2.12 ± 0.55. For the same molecule, the “change in expression of gene spy” value [1, 4] was 2.48 ± 0.88, the “change in expression of gene tatA” value [1, 4] was −1.83 ± 0.52 and the “change in expression of gene tatB” value [1, 4] was −2.68 ± 0.61. For the same molecule, the “change in expression of gene tatC” value [1, 4] was −3.61 ± 1.20, the “change in expression of gene tatD” value [1, 4] was −4.46 ± 1.28 and the “change in expression of gene tatE” value [1, 4] was 0.70 ± 0.64. For the same molecule, the “number of genes with significant changes in expression” value ([1]; vs control, Bon Ferroni corrected p-value<0.05) was 1384 genes and the aqueous solubility [2] was 30 µg/mL (≈ 535 µM).

B1: MVD: mevalonate diphosphate decarboxylase of Saccharomyces cerevisiae, enzyme and gene/transcript (optimized gene SEQ ID NO:2) (protein)
chain: MTVYTASVTAPVNIATLKYWGKRDTKLNLPTNSSISVTLSQDDLRTLTSAATAPEFERDTLWLNGEPHSIDNERTQNCLRDLRQLRKEMESKDASLPTLSQWKLHIVSENNFPTAAGLASSAAGFAALVSAIAKLYQLPQSTSEISRIARKGSGSACRSLFGGYVAWEMGKAEDGHDSMAVQIADSSDWPQMKACVLVVSDIKKDVSSTQGMQLTVATSELFKERIEHVVPKRFEVMRKAIVEKDFATFAKETMMDSNSFHATCLDSFPPIFYMNDTSKRIISWCHTINQFYGETIVAYTFDAGPNAVLYYLAENESKLFAFIYKLFGSVPGWDKKFTTEQLEAFNHQFESSNFTARELDLELQKDVARVILTQVGSGPQETNESLIDAKTGLPKE
modifications: optimized gene; MVD optimized gene sequence
For B1, the Isobutene production [3] is given as 6.44±0.95 pmol*min-1 *mg protein-1.
